Measured values published in patent US10251959B2, “Oligomer-beta blocker conjugates” (Nektar Therapeutics, priority 2007, dated 2019).

Legend:
[1] = molecular target: T1, adrenergic, beta-2 (human) (Homo sapiens, UniProt P07550); experiment: adrenergic, beta-2 (human) binding assay; HL-60 cells, isoproterenol, EIA read-out; format: cell-based; details: 100 nM isoproterenol, 20 minutes at room temperature
T1 construct: endogenous in cells; host or cells: HL-60 (human promyelocytic leukemia cells)
Experimental: With respect to beta-2 adrenergic activity, for example, human promyelocytic leukemia cells (HL-60 cells) can be washed and added to physiological buffer. […] Thereafter, 100 nM (final) isoproterenol is added. After twenty minutes at room temperature, cells are centrifuged, buffer removed, and 0.1M HCl is added to stop reaction. […] Pharmacol. 27(1):33-54.
Briefly, human promyelocytic leukemia cells (HL-60 cells) were washed and physiological buffer was added before analysis. To this was added 300 μM IBMX to inhibit phosphodiesterase. […] Cells were then centrifuged, buffer removed and 0.1 M HCL was added to stop the reaction.

[2] = molecular target: T2, adrenergic, beta-1 (human) (Homo sapiens, UniProt P08588); experiment: adrenergic, beta-1 (human) binding assay; human recombinant Sf9 cells, membranes, Europium time-resolved fluorescence; format: biochemical; details: Table 2, 30 nM isoproterenol
T2 construct: expressed in transfected cells; host or cells: Sf9 insect cells (membranes)
Experimental: The compound of interest is added to the membrane and then incubated for ten minutes. Thereafter, 100 nM GTP-Eu is added and incubated for an additional thirty minutes. Europium fluorescence is measured in a time-resolved fluorometer in order to ascertain any functional antagonist activity at the adrenergic beta 1 site. […] Briefly, Human recombinant Sf9 cells were used, wherein reactions were carried out in 50 mM HEPES [pH 7.4] containing 3 mM MgCl2, 0.1 μM GDP, 10 μm/mL Saoonin, and 1 mM DTT (dithiothreitol). The compound of interest was added to the membrane and then incubated for ten minutes at room temperature. Then, 30 nM of isoproterenol [final] to each well was added and allowed to incubate for an additional 30 minutes. Europium fluorescence was measured in a time-resolved fluorometer in order to ascertain any functional antagonist activity at the adrenergic beta-1 site. […] Briefly, Human recombinant Sf9 cells were used, wherein reactions were carried out in 50 mM HEPES [pH 7.4] containing 3 mM MgCl2, 0.1 μM GDP, 10 μm/mL Saoonin, and 1 mM DTT (dithiothreitol). The compound of interest was added to the membrane and then incubated for ten minutes at room temperature. Then, 30 nM of isoproterenol [final] to each well was added and allowed to incubate for an additional 30 minutes. Europium fluorescence was measured in a time-resolved fluorometer in order to ascertain any functional antagonist activity at the adrenergic beta-1 site.

T1 sequence (P07550 whole entry): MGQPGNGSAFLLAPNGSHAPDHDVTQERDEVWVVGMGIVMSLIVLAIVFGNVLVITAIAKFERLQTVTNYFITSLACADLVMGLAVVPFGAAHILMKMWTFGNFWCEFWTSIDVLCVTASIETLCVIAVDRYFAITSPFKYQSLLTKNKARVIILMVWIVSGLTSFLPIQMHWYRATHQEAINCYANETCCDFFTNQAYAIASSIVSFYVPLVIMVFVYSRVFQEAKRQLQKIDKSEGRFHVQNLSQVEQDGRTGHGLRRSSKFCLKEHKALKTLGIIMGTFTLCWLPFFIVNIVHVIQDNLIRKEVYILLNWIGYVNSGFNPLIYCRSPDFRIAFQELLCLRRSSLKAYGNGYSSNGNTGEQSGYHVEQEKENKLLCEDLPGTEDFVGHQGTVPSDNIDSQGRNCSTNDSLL
T2 sequence (P08588 whole entry): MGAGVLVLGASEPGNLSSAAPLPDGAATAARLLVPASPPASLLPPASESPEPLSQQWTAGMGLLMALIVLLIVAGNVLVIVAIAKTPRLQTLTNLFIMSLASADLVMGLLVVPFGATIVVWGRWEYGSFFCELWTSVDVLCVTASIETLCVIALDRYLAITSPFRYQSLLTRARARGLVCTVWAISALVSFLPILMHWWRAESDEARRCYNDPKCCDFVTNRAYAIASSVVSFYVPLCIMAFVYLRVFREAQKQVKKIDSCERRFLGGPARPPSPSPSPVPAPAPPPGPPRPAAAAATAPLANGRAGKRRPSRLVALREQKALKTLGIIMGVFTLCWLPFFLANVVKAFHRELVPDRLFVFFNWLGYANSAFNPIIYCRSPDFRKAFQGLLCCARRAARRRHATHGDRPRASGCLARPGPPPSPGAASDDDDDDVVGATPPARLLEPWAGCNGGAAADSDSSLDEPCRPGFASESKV

Compound	IC50 ([1]; Table 1, 300 μM IBMX) [nM]	IC50 [2] [nM]	IC50 ([1]; Table 3, 300 μM IBMX) [nM]
COCCOCCOCCOCCOCCO[C@@H](CNC(C)C)COc1cccc2ccccc12 [Propranolol Conjugate C]	339	4960	
COCCOCCOCCOCCOCCOCCOCCOCC(=O)O[C@@H](CNC(C)C)COc1cccc2ccccc12 [Propranolol Conjugate E]	1680		
COCCOCCOCCOCC(=O)O[C@@H](CNC(C)C)COc1cccc2ccccc12 [Propranolol Conjugate F]	1660	5390	
COCCOCCOCCO[C@@H](CNC(C)C)COc1cccc2ccccc12 [Propranolol Conjugate A]	112	1790	
COCCOCCOCCOCCOCCOCCOCCO[C@@H](CNC(C)C)COc1cccc2ccccc12 [Propranolol Conjugate D]	378		
COCCOCCOCCOCC(=O)O[C@H](COc1cccc2ccccc12)CN(C(=O)COCCOCCOCCOC)C(C)C [Propranolol Conjugate B]	13200	3810	

The next lines start with the values.

IC50 ([1]; Table 1, 300 μM IBMX) [nM]	IC50 [2] [nM]	IC50 ([1]; Table 3, 300 μM IBMX) [nM]	Compound
		629	COCCOCCOCCOCCOCCOCCOCCOCCOC(CNC(C)(C)C)COc1nsnc1N1CCOCC1 (stereo not shown) [Timolol Compound D]
		603	COCCOCCOCCOCCOCCOCCOCCOC(CNC(C)(C)C)COc1nsnc1N1CCOCC1 (stereo not shown) [Timolol Compound C]
		1290	COCCOCCOCCOCCOCCOC(CNC(C)(C)C)COc1nsnc1N1CCOCC1 (stereo not shown) [Timolol Compound B]
